Several values for one entry are separate records, joined by “and”; a condition that tells them apart may be missing. Equal entries are not always repeated.
Legend:
[1] = system: PKA and CREB phosphorylation; assay: Immunoblotting of p-PKA and p-CREB in HCT-116 cells; type: cell-based, human
Description: (§1) Tissues and cells were lysed using RIPA lysis buffer (Beyotime Biotechnology) containing protease and phosphatase inhibitor, homogenated, and centrifuged. The protein concentration was determined by BCA protein assay (Beyotime Biotechnology). Equal concentrations of proteins were separated in a 10% SDS-PAGE and transferred to PVDF membrane. […] Densitometry was quantified using ImageJ software.

Ripk1 mRNA [2] = assay: RT-PCR of Ripk1 mRNA in intestinal epithelial cells of experimental colitis mice; type: in vivo, mouse; conditions: Figure 7i, group TSZ+UDPG+Nec-1s
Description: Colon tissues derived from the euthanized by carbon dioxide inhalation mice were opened longitudinally and washed in pre-cooling PBS for three times. Then, the tissues were cut into 3 mm^2 pieces and incubated with 5 mM EDTA solution in PBS on a constant temperature shaker at 200 rpm for 25 min at 37°C. Then, let it stand at room temperature for 30 seconds and collected the supernatant. Next, repeated the above process once. Supernatants from the above step were combined and centrifuged at 500 g for 8 min. Abandon the supernatants and obtain IECs.
(§2) Total RNA was extracted from cells or colonic tissues using Trizol (Thermo) under the manufacturer’s instructions. First strand cDNA was synthesized using the PrimeScript RT Reagent Kit (480, Abm). SYBR Green Master Mix reagents (Q331-02, Vazyme) and primer mixtures (Table S1) were used for the real-time PCR. […] The procedure was as described in the kit provided by the manufacturer. Briefly, isolated IECs were fixed by 1% formaldehyde, and fragmented by sonication. CREB was then used for immunoprecipitation. After washing and reverse-crosslinking, the precipitated DNA was amplified by primers and quantified by the qPCR. Primer sequences can be found in Supplementary Table 1.

Ripk1 mRNA [3] = assay: RT-PCR of Ripk1 mRNA in HCT-116 cells; type: cell-based, human
Excerpt: as §2

[4] = system: CREB binding to Ripk1 promoter; assay: ChIP-qPCR with anti-CREB on Ripk1 gene promoter in HT-29 cells; type: cell-based, human
Excerpt: as §2

MLKL phosphorylation [5] = assay: Immunoblotting of p-MLKL/MLKL in HCT-116 cells; type: cell-based, human; conditions: P2Y14R-OE cells + TSZ, replicates, supplement Figure 2g
Description: as §1

[6] = system: CREB binding to Ripk1 promoter; assay: ChIP-qPCR with anti-CREB on Ripk1 gene promoter in HCT-116 cells; type: cell-based, human
Excerpt: as §2

Ripk1 mRNA [7] = assay: RT-PCR of Ripk1 mRNA in HT-29 cells; type: cell-based, human
Excerpt: as §2

HT-29 cells = assay: TSZ-induced necroptosis in HT-29 cells (CCK8 viability, PI/Hoechst, H&E staining); type: cell-based, human
Description: (§3) Necroptosis was induced by pretreatment with TNF‐α (20 ng·mL^−1) plus z‐VAD‐fmk (20 μM) and Smac mimetic (BV6, 2 μM) for 8 h, then stained cells with hematoxylin/eosin. For PI/Hoechst staining, cells were stained with PI and Hoechst for 20 min, then photographed with a fluorescence microscope and at least 300 cells were counted. The ratio of PI positive cells (%) = (PI positive cells) / (Hoechst positive cells) × 100%. For cell viability assay, CCK8 was added to the well and incubated for 1 − 2 h and then OD450 was measured using a multi-mode microplate reader (Cytation5, BioTek).

MLKL phosphorylation [8] = assay: Immunoblotting of p-MLKL/MLKL in HT-29 cells; type: cell-based, human; conditions: P2Y14R-OE cells + TSZ, replicates, supplement Figure 2e
Description: as §1

HCT-116 cells = assay: TSZ-induced necroptosis in HCT-116 cells (PI/Hoechst staining); type: cell-based, human
Description: as §3

[9] = system: PKA and CREB phosphorylation; assay: Immunoblotting of p-PKA and p-CREB in HT-29 cells; type: cell-based, human
Description: as §1

intestinal organoids = assay: TSZ-induced necroptosis in intestinal organoids (PI staining); type: cell-based, mouse; conditions: P2Y14Rfl/fl organoids, UDPG+TSZ
Description: Crypts were released from the murine small intestine by incubation for 30 min at 4°C in PBS containing 2 mM EDTA. Isolated crypts were counted and pelleted. […] Organoid media were changed every 3 days. […] Dead cell imaging in live organoids was performed on the fluorescence microscope (BX53, Olympus Optical), and analyzed by image j.

[10] = HCT-116 cells, UDPG+TSZ, pre-treatment
[11] = HT-29 cells, UDPG+TSZ, pre-treatment

Compound: CN1C(=O)NC(Cc2c[nH]c3c(Cl)cccc23)C1=O (centres unmarked) [Nec-1s]
- P-PKA/PKA ([1]; Figure 5n, second block, added to UDPG+TSZ): 0.2244 and 0.2706 and 0.2071 and 0.4048 and 0.2633
- Phosphorylation level of PKA/CREB pathway ([1]; UDPG+TSZ): did not affect the phosphorylation level of PKA/CREB pathway
- Expression of Ripk1 in IEC, 2^△△CT (Ripk1 mRNA [2]): 1.11 and 1.102 and 0.9517 and 0.9698 and 1.16
- Ripk1 transcript (mRNA) (Ripk1 mRNA [3]; [10]): showed no effect
- Expression of Ripk1 in HCT-116 cell, 2^△△CT (Ripk1 mRNA [3]; added to TSZ+UDPG): 2.77 and 2.8504 and 2.771 and 2.541 and 2.7034
- CREB binding Ripk1 promoter ([4]; Figure 5m, added to TSZ+UDPG): 4.90% and 6.57% and 1.83%
- Decrease of binding between CREB and Ripk1 promoter (ChIP) [4, 11]: did not affect this process
- P-MLKL/MLKL (MLKL phosphorylation [5]): 2.175 and 2.507 and 2.289 and 2.573 and 2.48
- CREB binding Ripk1 promoter ([6]; Figure 5p, added to TSZ+UDPG): 42.22% and 33.74% and 27.53%
- Decrease of binding between CREB and Ripk1 promoter (ChIP) [6, 10]: did not affect this process
- Ripk1 transcript (mRNA) (Ripk1 mRNA [7]; [11]): showed no effect
- Expression of Ripk1 in HT-29 cell, 2^△△CT (Ripk1 mRNA [7]; added to TSZ+UDPG): 3.657 and 4.786 and 3.641 and 3.399 and 4.214 and 3.302
- UDP-glucose derived damage on TSZ-stimulated necroptosis (HT-29 cells; HT-29 cells, UDPG+TSZ): remarkably attenuated the UDP-glucose derived damage on TSZ-stimulated necroptosis
- Cell viability (HT-29 cells; P2Y14R-OE cells + TSZ, replicates): 99.7919 and 100.274 and 99.3783 and 100.966 and 100.911 and 101.005
- PI positive (%) (HT-29 cells; P2Y14R-OE cells + TSZ, replicates, supplement Figure 2c): 6.21% and 5.544% and 2.585%
- TSZ-stimulated necroptosis (HT-29 cells; P2Y14R-overexpression HT-29 cells, 1h pre-treatment, TSZ 8 h): alleviated TSZ stimulated IECs necroptosis
- P-MLKL/MLKL (MLKL phosphorylation [8]): 2.79 and 2.6518 and 3.608 and 1.739 and 2.51
- UDP-glucose derived damage on TSZ-stimulated necroptosis (HCT-116 cells; HCT-116 cells, UDPG+TSZ): remarkably attenuated the UDP-glucose derived damage on TSZ-stimulated necroptosis
- PI positive (%) (HCT-116 cells; P2Y14R-OE cells + TSZ, replicates, supplement Figure 2f): 1.2% and 1.6% and 3.0%
- TSZ-stimulated necroptosis (HCT-116 cells; P2Y14R-overexpression HCT-116 cells, pre-treated): alleviated this phenomenon
- Phosphorylation level of PKA/CREB pathway ([9]; UDPG+TSZ): did not affect the phosphorylation level of PKA/CREB pathway
- P-CREB/CREB ([9]; added to UDPG+TSZ, Figure 5k): 0.2673 and 0.2178 and 0.2551 and 0.2611 and 0.3759
- UDPG-increased TSZ necroptosis in organoids (intestinal organoids): remarkably attenuated this damage
